Data: ChEMBL document CHEMBL2429852, “Synthesis and evaluation of new chalcones, derived pyrazoline and cyclohexenone derivatives as potent antimicrobial, antitubercular and antileishmanial agents” (Med Chem Res, 2013)
In brackets after ≈: the same amount, converted by molar mass.

What was measured:
[1] = system: Streptococcus pyogenes; assay: Antibacterial activity against Streptococcus pyogenes MTCC 443 assessed as growth inhibition by broth microdilution method; assay type: functional
[2] = system: Escherichia coli; assay: Antibacterial activity against Escherichia coli MTCC 442 assessed as growth inhibition by broth microdilution method; assay type: functional
[3] = system: Pseudomonas aeruginosa; assay: Antibacterial activity against Pseudomonas aeruginosa MTCC 2488 assessed as growth inhibition by broth microdilution method; assay type: functional
[4] = system: Staphylococcus aureus; assay: Antibacterial activity against Staphylococcus aureus MTCC 96 assessed as growth inhibition by broth microdilution method; assay type: functional
[5] = system: Mycobacterium tuberculosis; assay: Antitubercular activity against Mycobacterium tuberculosis H37Rv assessed as growth inhibition after 12 to 28 days by Lowenstein-Jensen agar method; assay type: functional; settings: for MIC: Mycobacterium tuberculosis, H37Rv
[6] = system: Aspergillus niger; assay: Antifungal activity against Aspergillus niger MTCC 282 assessed as growth inhibition by broth microdilution method; assay type: functional
[7] = system: Candida albicans; assay: Antifungal activity against Candida albicans MTCC 227 assessed as growth inhibition by broth microdilution method; assay type: functional
[8] = system: Leishmania braziliensis; assay: Antileishmanial activity against promastigote stage of Leishmania braziliensis H3 assessed as parasite growth inhibition after 72 hrs by Neubauer chamber counting method; assay type: functional, organism-based
[9] = system: Aspergillus clavatus; assay: Antifungal activity against Aspergillus clavatus MTCC 1323 assessed as growth inhibition by broth microdilution method; assay type: functional
[10] = system: Candida albicans; assay: Potency index, ratio of griseofulvin MIC to compound MIC for Candida albicans MTCC 227; assay type: functional
[11] = system: Escherichia coli; assay: Potency index, ratio of ampicillin MIC to compound MIC for Escherichia coli MTCC 442; assay type: functional
[12] = system: Streptococcus pyogenes; assay: Potency index, ratio of ampicillin MIC to compound MIC for Streptococcus pyogenes MTCC 443; assay type: functional
[13] = system: Pseudomonas aeruginosa; assay: Potency index, ratio of ampicillin MIC to compound MIC for Pseudomonas aeruginosa MTCC 2488; assay type: functional
[14] = system: Staphylococcus aureus; assay: Potency index, ratio of ampicillin MIC to compound MIC for Staphylococcus aureus MTCC 96; assay type: functional
[15] = Selectivity index, ratio of CC50 for mouse J774A1 cells to IC50 for promastigote stage of Leishmania braziliensis H3; assay type: functional, J774.A1
[16] = Cytotoxicity against mouse J774A1 cells after 72 hrs by MTT assay; assay type: cell-based, J774.A1
[17] = Leishmania braziliensis, H3, 72 h, read-out: IC50

| Structure (SMILES) | MIC99 [1] | MIC99 [2] | MIC99 [3] | MIC99 [4] | growth inhibition (GI) [5] | MIC [5] | MIC99 [6] | MIC99 [7] | IC50 [8] | MIC99 [9] | Ratio [10] | Ratio [11] | Ratio [12] | Ratio [13] | Ratio [14] | IC50 [8, 17] | Ratio CC50/IC50 [15] | CC50 at 72 h [16] |
| --- | --- | --- | --- | --- | --- | --- | --- | --- | --- | --- | --- | --- | --- | --- | --- | --- | --- | --- |
| CC1(C)S[C@@H]2[C@H](NC(=O)[C@H](N)c3ccccc3)C(=O)N2[C@H]1C(=O)O [AMPICILLIN] | 100 µg/mL | 100 µg/mL | 100 µg/mL | 250 µg/mL |  |  |  |  |  |  |  |  |  |  |  |  |  |  |
| CC(=O)N1N=C(c2cccc([N+](=O)[O-])c2)CC1c1ccc2ccccc2c1 (centres undefined) | 100 µg/mL | 250 µg/mL | 250 µg/mL | 100 µg/mL | 98% | 1000 µg/mL (≈ 2780 µM) | > 1000 µg/mL | 250 µg/mL | Not Active | > 1000 µg/mL | 2 |  |  |  |  |  |  |  |
| CC(=O)N1N=C(c2cccc([N+](=O)[O-])c2)CC1/C=C/c1ccccc1 (centres undefined) | 25 µg/mL | 62.5 µg/mL | 100 µg/mL | 250 µg/mL | 98% | 250 µg/mL (≈ 745 µM) | > 1000 µg/mL | 500 µg/mL | Not Active | > 1000 µg/mL | 2 | 4 | 5 |  |  |  |  |  |
| O=C(/C=C/c1ccc2c(c1)OCO2)c1cccc([N+](=O)[O-])c1 | 250 µg/mL | 250 µg/mL | 250 µg/mL | 250 µg/mL | 99% | 250 µg/mL (≈ 841 µM) | 1000 µg/mL | 250 µg/mL | Not Active | 1000 µg/mL | 2 |  |  |  |  |  |  |  |
| O=[N+]([O-])c1cccc(C2=NNC(c3ccc4ccccc4c3)C2)c1 (centres undefined) | 125 µg/mL | 250 µg/mL | 25 µg/mL | 50 µg/mL | 99% | 62.5 µg/mL (≈ 197 µM) | 100 µg/mL | 100 µg/mL | Not Active | 250 µg/mL | 5 |  |  | 4 | 2 |  |  |  |
| O=C(/C=C/C=C/c1ccccc1)c1cccc([N+](=O)[O-])c1 | 125 µg/mL | 200 µg/mL | 100 µg/mL | 125 µg/mL | 97% | 1000 µg/mL (≈ 3580 µM) | 1000 µg/mL | 250 µg/mL | Not Active | 1000 µg/mL | 2 |  |  |  |  |  |  |  |
| O=C(/C=C/c1ccc2ccccc2c1)c1cccc([N+](=O)[O-])c1 | 125 µg/mL | 62.5 µg/mL | 200 µg/mL | 100 µg/mL | 98% | 500 µg/mL (≈ 1650 µM) | 1000 µg/mL | 500 µg/mL | Not Active | 1000 µg/mL |  | 2 |  |  | 2 |  |  |  |
| COc1cc(C2CC(c3cccc([N+](=O)[O-])c3)=NN2C(C)=O)cc(OC)c1OC (centres undefined) | 250 µg/mL | 250 µg/mL | 200 µg/mL | 250 µg/mL | 99% | 12.5 µg/mL (≈ 31.3 µM) | 500 µg/mL | 250 µg/mL | Not Active | 500 µg/mL | 2 |  |  |  |  |  |  |  |
| COc1cc(/C=C/C(=O)c2cccc([N+](=O)[O-])c2)cc(OC)c1OC | 100 µg/mL | 250 µg/mL | 250 µg/mL | 100 µg/mL | 99% | 25 µg/mL (≈ 72.8 µM) | > 1000 µg/mL | 250 µg/mL |  | > 1000 µg/mL | 2 |  |  |  |  | 9.3 µM | 5.26 | 49 µM |
| CC(=O)N1N=C(c2cccc([N+](=O)[O-])c2)CC1c1ccc2c(c1)OCO2 (centres undefined) | 250 µg/mL | 250 µg/mL | 200 µg/mL | 250 µg/mL | 99% | 250 µg/mL (≈ 708 µM) | 500 µg/mL | 500 µg/mL | Not Active | 500 µg/mL |  |  |  |  |  |  |  |  |
| CCOC(=O)C1C(=O)C=C(c2cccc([N+](=O)[O-])c2)CC1c1ccc(OC)cc1 (centres undefined) | 500 µg/mL | 100 µg/mL | 200 µg/mL | 250 µg/mL | 98% | 500 µg/mL (≈ 1260 µM) | > 1000 µg/mL | 500 µg/mL | Not Active | > 1000 µg/mL |  |  |  |  |  |  |  |  |
| CCOC(=O)C1C(=O)C=C(c2cccc([N+](=O)[O-])c2)CC1c1cc(OC)c(OC)c(OC)c1 (centres undefined) | 200 µg/mL | 200 µg/mL | 200 µg/mL | 200 µg/mL | 99% | 250 µg/mL (≈ 549 µM) | > 1000 µg/mL | 100 µg/mL | Not Active | > 1000 µg/mL |  |  |  |  |  |  |  |  |
| COc1ccc(C2CC(c3cccc([N+](=O)[O-])c3)=NN2)cc1 (centres undefined) | 500 µg/mL | 62.5 µg/mL | 100 µg/mL | 500 µg/mL | 99% | 250 µg/mL (≈ 841 µM) | 1000 µg/mL | 250 µg/mL |  | 1000 µg/mL | 2 |  |  |  |  | > 100 µM |  |  |
| COc1ccc(C2CC(c3cccc([N+](=O)[O-])c3)=NN2C(C)=O)c(OC)c1OC (centres undefined) | 250 µg/mL | 100 µg/mL | 100 µg/mL | 250 µg/mL | 99% | 250 µg/mL (≈ 626 µM) | 250 µg/mL | 1000 µg/mL | Not Active | 250 µg/mL |  |  |  |  |  |  |  |  |
| CO[C@H]1/C=C/O[C@@]2(C)Oc3c(C)c(O)c4c(O)c(c(/C=N/N5CCN(C)CC5)c(O)c4c3C2=O)NC(=O)/C(C)=C\C=C\[C@H](C)[C@H](O)[C@@H](C)[C@@H](O)[C@@H](C)[C@H](OC(C)=O)[C@@H]1C [RIFAMPIN] |  |  |  |  | 98% | 40 µg/mL (≈ 48.6 µM) |  |  |  |  |  |  |  |  |  |  |  |  |
| COc1cc(OC)c(C2CC(c3cccc([N+](=O)[O-])c3)=NN2C(C)=O)cc1OC (centres undefined) | 125 µg/mL | 125 µg/mL | 125 µg/mL | 100 µg/mL | 98% | 500 µg/mL (≈ 1250 µM) | 250 µg/mL | 1000 µg/mL | Not Active | 250 µg/mL |  |  |  |  |  |  |  |  |
| O=[N+]([O-])c1cccc(C2=NNC(c3ccc4c(c3)OCO4)C2)c1 (centres undefined) | 125 µg/mL | 100 µg/mL | 200 µg/mL | 100 µg/mL | 98% | 500 µg/mL (≈ 1610 µM) | 1000 µg/mL | 250 µg/mL | Not Active | 1000 µg/mL | 2 |  |  |  |  |  |  |  |
| COc1ccc(C2CC(c3cccc([N+](=O)[O-])c3)=NN2C(C)=O)cc1OC (centres undefined) | 125 µg/mL | 500 µg/mL | 250 µg/mL | 125 µg/mL | 99% | 500 µg/mL (≈ 1350 µM) | 500 µg/mL | 200 µg/mL | Not Active | 500 µg/mL | 2 |  |  |  |  |  |  |  |
| CCOC(=O)C1C(=O)C=C(c2cccc([N+](=O)[O-])c2)CC1c1ccc2c(c1)OCO2 (centres undefined) | 200 µg/mL | 125 µg/mL | 200 µg/mL | 250 µg/mL | 99% | 250 µg/mL (≈ 611 µM) | 1000 µg/mL | 500 µg/mL | Not Active | 1000 µg/mL |  |  |  |  |  |  |  |  |
| COc1ccc(/C=C/C(=O)c2cccc([N+](=O)[O-])c2)c(OC)c1OC | 250 µg/mL | 200 µg/mL | 200 µg/mL | 250 µg/mL | 98% | 500 µg/mL (≈ 1460 µM) | > 1000 µg/mL | 1000 µg/mL |  | > 1000 µg/mL |  |  |  |  |  | 8.9 µM | 10.06 | 89.5 µM |
| COc1ccc(/C=C/C(=O)c2cccc([N+](=O)[O-])c2)cc1 | 500 µg/mL | 200 µg/mL | 200 µg/mL | 500 µg/mL | 98% | 1000 µg/mL (≈ 3530 µM) | 200 µg/mL | 1000 µg/mL | Not Active | 200 µg/mL |  |  |  |  |  |  |  |  |
| COc1cc(OC)c(OC)cc1/C=C/C(=O)c1cccc([N+](=O)[O-])c1 | 500 µg/mL | 125 µg/mL | 125 µg/mL | 500 µg/mL | 99% | 250 µg/mL (≈ 728 µM) | 1000 µg/mL | 1000 µg/mL | Not Active | 1000 µg/mL |  |  |  |  |  |  |  |  |
| COC1=CC(=O)C[C@@H](C)[C@]12Oc1c(Cl)c(OC)cc(OC)c1C2=O [GRISEOFULVIN] |  |  |  |  |  |  | 100 µg/mL | 500 µg/mL |  | 100 µg/mL |  |  |  |  |  |  |  |  |
| COc1ccc(C2CC(c3cccc([N+](=O)[O-])c3)=NN2C(C)=O)cc1 (centres undefined) | 250 µg/mL | 250 µg/mL | 250 µg/mL | 250 µg/mL | 99% | 250 µg/mL (≈ 737 µM) | 1000 µg/mL | 1000 µg/mL | Not Active | 1000 µg/mL |  |  |  |  |  |  |  |  |
| COc1ccc(/C=C/C(=O)c2cccc([N+](=O)[O-])c2)cc1OC | 200 µg/mL | 100 µg/mL | 200 µg/mL | 200 µg/mL | 98% | 500 µg/mL (≈ 1600 µM) | > 1000 µg/mL | 500 µg/mL |  | > 1000 µg/mL |  |  |  |  |  | > 100 µM |  |  |
